The results in this text go back to PubChem BioAssay (NCI).

Several values for one entry are separate records, joined by “and”; a condition that tells them apart may be missing. Identical values can stand only once.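 Cultured in 96-well plates, cells were exposed to test compound for 48 hours across five concentrations. Here, GI50 denotes the concentration required for 50% inhibition of growth. Definition used: TGI = concentration required for complete inhibition of growth.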

Holding throughout (test): inhibition of tumour cell growth, NCI panel, 48 h
For experiment [1], the system named is HOP-92 NSCLC.
In experiment [2] the test system is SK-MEL-5 melanoma.
Experiment [3] deals with 786-0 renal.
The test system of experiment [4] is SF-268 CNS.
For experiment [5], the system named is OVCAR-5 ovarian.
The test system of experiment [6] is HOP-62 NSCLC.
Experiment [7] concerns U251 CNS.
Experiment [8] has as its system SF-539 CNS.
The subject of experiment [9] is SNB-19 CNS.
Experiment [10] concerns K-562 leukemia.

For the molecule `Nc1c(C(=O)Nc2ccccc2)sc2nc3c(cc12)CCCCC3`, the GI50 in experiment [1] is 0.91 µM; in [2] it was 0.353 µM; in experiment [3] it was 0.465 µM; in experiment [4], 1.1 µM; in experiment [5], 1.06 µM; in [6], 0.88 µM. For the same molecule, the values for the GI50 in [7], in experiment [8] and in [9] were 0.767 µM, 0.307 µM and 0.643 µM, respectively. In addition, the TGI was 18 µM in experiment [1]; 5.2 µM in experiment [2]; 11.8 µM in experiment [3]; 54.4 µM in [4]; greater than 100 µM in [5]; 13.9 µM in [6]. The values for the TGI in [7], in [8] and in experiment [9] were 19.5 µM, 12 µM and greater than 100 µM, respectively.

On to `CCCCCCCCCCCCCCCC1=NCCN1`, for which the GI50 in experiment [1] was 2.15 µM; in experiment [2], 1.81 µM; in experiment [3], 1.84 µM; in experiment [5], 2.26 µM; in experiment [7], 1.87 µM; in experiment [8], 1.89 µM. Moreover, the TGI in [1] came out at 4.8 µM; in experiment [2] it was 3.24 µM; in experiment [3], 3.32 µM; in experiment [5], 5.53 µM; in [7], 3.52 µM; in experiment [8], 3.6 µM.

On to `Oc1ccc(O)c(-c2cn3c(n2)SCC3)c1`, for which the GI50 in experiment [2] was 16.9 µM; in experiment [3] it was 2.32 µM; in [4], 28.7 µM; in experiment [5], 17.5 µM; in [7], 18.3 µM; in [9] it was 21.3 µM. The GI50 in experiment [10] is 7.24 µM. Further, the TGI in experiment [2] was 33 µM; in [3] it was 6.59 µM; in [4] it was greater than 100 µM; in [5] it was 33.3 µM; in [7], 33.6 µM; in experiment [9], 45.4 µM. In addition, the TGI in experiment [10] was greater than 100 µM.

Take `Cc1ccc(Nc2nccc(N(C)c3ccc4c(C)n(C)nc4c3)n2)cc1S(N)(=O)=O`: the GI50 in experiment [2] was 2.41 µM; in experiment [3] it was 4.03 µM and 2.8 µM and 5.96 µM; in [4], 5.26 µM and 3.17 µM and 9.96 µM; in experiment [5] it was 1.43 µM and 6.49 µM; in [6], 8.64 µM and 1.51 µM and 11.7 µM; in [7], 3.35 µM and 0.95 µM and 8.12 µM. Also, the GI50 was 0.589 µM and 1.5 µM in experiment [8]; 3.05 µM and 0.454 µM and 4.21 µM in [10]. In addition, the TGI was 10.8 µM in experiment [2]; greater than 100 µM in [3]; greater than 100 µM in experiment [4]; greater than 100 µM in [5]; > 100 µM and > 10 µM and 42.5 µM in experiment [6]; greater than 100 µM in experiment [7]. Moreover, the TGI in experiment [9] and in experiment [10] was greater than 100 µM in each case.

Consider `CC/C=C\C[C@H](F)C/C=C1/C(=O)C=C[C@@H]1C/C=C\CCCC(=O)OC`, for which the GI50 in [2] is 1.29 µM; in experiment [3], 2.56 µM; in [4], 1.86 µM; in experiment [5], 3.35 µM; in [6], 1.45 µM; in [7] it was 1.86 µM. The GI50 in [8] was 4.26 µM; in experiment [9], 2.35 µM; in experiment [10], 1.49 µM. Also, the TGI in experiment [2] was 3.13 µM; in experiment [3] it was 9.55 µM; in experiment [4] it was 7.23 µM; in [5], 12.4 µM; in [6], 3.45 µM; in experiment [7] it was 6.57 µM. The figures for the TGI in experiment [8], in experiment [9] and in [10] were 11.2 µM, 9.23 µM and 6.19 µM, respectively.

For the molecule `CCCCCOCC(O)CO` (configuration not stated), the TGI in experiment [1], in experiment [2], in [3], in [4], in [5] and in experiment [6] was greater than 100 µM each time. In addition, the TGI in [7], in experiment [8] and in experiment [9] was greater than 100 µM each time.

As to `NC(=NCc1ccccc1)C(N=Nc1ccccc1)C(=O)NCc1ccccc1` (configuration not stated), the GI50 was 1.78 µM in [1]; 23.4 µM in experiment [2]; 12.1 µM in experiment [3]; 2.53 µM in experiment [4]; 18 µM in [5]; 12.6 µM in [6]. For the same molecule, the figures for the GI50 in experiment [7], in experiment [8] and in [9] were 5.75 µM, 16.6 µM and 13.2 µM, respectively. Besides, the TGI in experiment [1] amounted to 7.38 µM; in experiment [2], 67.3 µM; in experiment [3] it was 30 µM; in experiment [4], 6.44 µM; in experiment [5], 44.7 µM; in [6] it was 29.6 µM. The TGI came out at 25.9 µM in experiment [7], 37.1 µM in experiment [8] and 31.5 µM in [9].

As for `Cc1cccc(-n2c(N)c(-c3nc4ccccc4[nH]3)sc2=S)c1`, the TGI is 46.7 µM in experiment [2]; 54.1 µM in experiment [3]; greater than 100 µM in experiment [4]; greater than 100 µM in [5]; 78.9 µM in [6]; 43.2 µM in experiment [7]. For the same molecule, the TGI in experiment [8] was 37 µM; in experiment [9], greater than 100 µM; in experiment [10], greater than 100 µM.

With `Cc1ccc2oc(=O)cc(/C(=C3/C=CC=N3)c3ccc[nH]3)c2c1`, the GI50 in experiment [1] was 0.155 µM; in [2], 0.356 µM; in experiment [3], 0.279 µM; in experiment [4], 0.526 µM; in experiment [5] it was 0.901 µM; in experiment [6], 0.533 µM. Moreover, the GI50 in experiment [7] is 0.319 µM; in experiment [8], 0.226 µM; in experiment [9], 0.355 µM. Also, the TGI in experiment [1] stood at 2.57 µM; in experiment [2] it was 1.29 µM; in [3], 0.892 µM; in experiment [4] it was 6.73 µM; in experiment [5] it was 12.7 µM; in experiment [6] it was 5.53 µM. In addition, the TGI in experiment [7] amounted to 1.57 µM; in experiment [8] it was 0.67 µM; in experiment [9], 4.94 µM.
